Assay results taken from patent US9067898B1, “Isothiazole derivatives as GPR120 agonists for the treatment of type II diabetes” (Janssen Pharmaceutica NV, priority 2014, dated 2015).

Legend:
[1] = biological target: T1, long form of human GPR120 (Homo sapiens, UniProt Q5NUL3); experiment: Human GPR120 DiscoveRx PathHunter Beta-Arrestin assay, Procedure β-arrestin A; format: cell-based; conditions: PathHunter CHO-K1 GPR120 β-Arrestin cell line, 3000 cells per well, read-out: hGPR120 β-arrestin A EC50
T1 construct: host or cells: PathHunter CHO-K1 GPR120 β-Arrestin Cell Line
Source text: The binding of an agonist (medium/long chain fatty acids or small molecule agonists) to the G-protein-coupled receptor GPR120 activates phospholipase C, leading to release of intracellular Ca^+2 through the generation of inositol 1,4,5-trisphosphate (InsP3 or IP3). GPR120 activation can also trigger intracellular signaling via recruitment of Beta-Arrestin. In the present method, agonist-induced activation of the human GPR120 receptor is monitored through the use of PathHunter CHO-K1 GPR120 Beta-Arrestin Cell Line engineered by DiscoveRx, as detailed below. The cell lines are designed to co-express both the ProLink/Enzyme Donor (PK)-tagged GPCR and the Enzyme […] (EA)-tagged Beta-Arrestin fusion proteins. Upon GPR120 receptor stimulation/activation, the EA-tagged Beta-Arrestin portion is translocated to the tagged receptor, where the two enzyme fragments are brought within close proximity. Under these conditions, these fragments can interact and form an active Beta-gal enzyme complex through Enzyme Fragment Complementation (EFC). This active Beta-gal complex can enzymatically hydrolyse the substrate to produce a detectable light signal; therefore, activation as a function of agonist concentration can be expressed as an EC50 value to determine relative compound activities. This in vitro assay therefore serves to assess compound agonist activity of the GPR120. Procedure β-Arrestin A: In Procedure β-arrestin A, the cell used were PathHunter CHO-K1 GPR120 β-Arrestin Cell Line, expressing the long form of human GPR120 (Genbank accession number NM 181745), with 3000 cells per well. Procedure β-Arrestin B: In Procedure 3-arrestin B the cells used were PathHunter CHO-K1 GPR120S β-Arrestin Cell Line, expressing the short form of the GPR120 receptor (Accession #NM_181745), with 5000 cells/well. Assay Procedure:
The selected CHO-K1 GPR120 β-Arrestin cells were cultured in Ham's F12 media supplemented with 10% fetal bovine serum (FBS), 1% Glutamine, lx p/s, 800 μg/mL G418 and 300 μg/mL Hygromycin B (for selection). Cell stocks were maintained and grown in a sub-confluent state using standard cell culture procedures. The day before the experiment, the cells were harvested with non-enzymatic cell dissociation buffer and re-suspended in complete growth media at the desired concentration. A Corning 384-plate was then seeded with the proper number of cells in a volume of 25 μL, per well. The seeded plates were incubated overnight at 37° C.
On the day of the experiment, the Assay Buffer containing (a) HBSS with Ca^++ and Mg^++, (b) 20 mM HEPES, and (c) 0.1% BSA stabilizer (pH 7.4) was prepared. The growth medium was gently removed from the cell plates and 20 μL of Assay Buffer added to each well. The plate was then incubated at 37° C. for 60 min. Test compounds were serially diluted in Assay Buffer to desired concentrations (more particularly to one or more of the following μM concentrations: 25, 12.5, 6.25, 3.125, 1.5625, 0.78125, 0.390625, 0.1953125, 0.09765625, 0.048828125, 0.024414063, 0.012207031). Five μL of compound dilution was then added to each well and the plate incubated at 37° C. for 90 min. The detection reagents were prepared according to the manufacture's instruction. Twelve μL of the detection reagents were added to each well and the plate incubated at room temperature for 60 min.
The plates were read on an EnVision instrument, using Protocol name: Luminescence, Plate type: 384 Costar, Measurement height: 3 mm, Measurement time: 1 s, Aperture: 384 Plate aperture. The % activity relative to the positive control was calculated using the following equation:
The % Activity values were plotted versus the concentration of test compound and fitted to a sigmoidal dose-response curve with a Hill slope=1 (fixed value) using nonlinear regression with GraphPad Prism 5.0 to calculate the EC50 values. […]

Human GPR120 short form = biological target: T2, Human GPR120 short form (Homo sapiens, UniProt Q5NUL3); experiment: Human GPR120 calcium flux assay (FLIPR), Procedure Calcium A; format: cell-based; conditions: HEK-293 cells expressing human GPR120 short form, 2500 cells/well; read-out: GPR120 Ca2+ Assay A EC50
T2 construct: expressed in transfected cells
T2 sequence (Q5NUL3 1-361): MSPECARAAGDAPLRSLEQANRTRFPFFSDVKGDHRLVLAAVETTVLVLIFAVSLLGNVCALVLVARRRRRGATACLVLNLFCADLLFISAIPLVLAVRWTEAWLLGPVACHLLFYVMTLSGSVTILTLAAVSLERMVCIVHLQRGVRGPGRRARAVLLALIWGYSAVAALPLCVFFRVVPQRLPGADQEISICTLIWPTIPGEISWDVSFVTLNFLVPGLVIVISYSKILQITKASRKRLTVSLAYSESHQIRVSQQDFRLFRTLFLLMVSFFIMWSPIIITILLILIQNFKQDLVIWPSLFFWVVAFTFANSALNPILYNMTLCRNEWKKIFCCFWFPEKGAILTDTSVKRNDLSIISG
Source text: This in vitro assay serves to assess test compound agonist activity against the short splice variant (SVS with Accession number NM_001195755.1 confirmed by sequencing data) of the GPR120 receptor. The Human Short splice variant #2 (NM_001195755.1) is missing an in-frame coding exon compared to variant 1 (the Human Long splice variant NM_181745.3), resulting in a shorter isoform (GPR120-S) lacking a 16 aa protein segment compared to isoform GPR120-L. The assay platform utilizes HEK-293 cells stably transfected to express the Human GPR120 short form. These cells are first loaded with the Ca^+2 sensitive dye, Fluo-4 NW. Upon stimulation, intracellular released Ca^+2 can bind to the dye and alter its fluorescence intensity. This increase in fluorescence signal, and thus the flux in intracellular [Ca^2+], is detected and quantitated by fluorescence imaging using a FLIPR reader. The effect of the agonist is measured as a function of concentration and used to calculate an EC50 based upon a response curve.
In this procedure 2500 cells/well were employed.
A Human GPR120 clone (Genbank accession number NM_001195755.1) was placed into the pcDNA3.1 mammalian expression vector carrying the neomycin resistance gene. A stable mammalian cell was generated by placing the above clone into a HEK293 background. Clonal cells responding to long chain fatty acids had expression levels of GPR120 confirmed by RT-qPCR. Human HEK-GPR120 cells were cultured in Dulbecco's Modified Eagle's Medium (DMEM)/F12 medium supplemented with 10% fetal bovine serum (FBS), 1% L-Glutamine and 1% penicillin/streptomycin and 0.5 mg/ml G-418. Cells were split 2 times a week to keep the cells in the log-phase growth.
In preparation for the assay, HEK cells stably transfected with Human GPR120 (2.5K cells per well in 25 uL growth medium) were seeded into 384-well plates and then incubated overnight (37° C., 5% CO2). The next day, the media was changed to 20 μL assay buffer and the cell starved for 1 h at 37° C. The dye loading solution (2× dye) was prepared using 10 mL assay buffer, 100 μL of 250 mM probenecid, 1 bottle of Component A, and 20 μl of dye in DMSO. Twenty μL of the 2× dye loading buffer was then added to each well. The plates were incubated at 37° C. for 30 min, then at room temperature for an additional 15 minutes, before performing the assay on FLIPR. Test compounds were prepared in assay buffer (2 uL of cpd+198 uL assay buffer, final DMSO in assay plate is 0.2%) at the desired concentration, more particularly at 100, 50, 25, 12.5, 6.25, 3.125, 1.562, 0.781, 0.391, 0.195, 0.098, 0.049, 0.024 and 0.012 μM.
The assay was performed on a FLIPR plate reader using the following parameters. Baseline was read for 10 seconds at 1 sec intervals. The program was set to transfer 10 μL of ligand from compound plate to cell plate after baseline reading. Aspiration was executed at: 10 μL/sec speed, 4.6 μL height; Dispensing was executed at: 30 μL/sec speed, 45 μL height. After compound addition, each well was read for 300 sec, with measurements collected at 1 sec intervals.
The kinetic data from the FLIPR was based upon a 5 minute window for data collection. The fluorescence of each sample well was used for individual calculations of a normalized RFU value, which was defined as maximum response minus the minimum response. The normalized fluorescence reading (RFU) was calculated as follows: RFU=Fmax−Fmin The data were fitted to a sigmoidal dose-response curve with a variable Hill slope (<2) using nonlinear regression with GraphPad Prism 5.0 to calculate the EC50 values. The Fitting Equation was: Y=Bottom+(Top−Bottom)/(1+10^((Log EC50−X)*HillSlope)), where X is the log of the concentration and Y is the response.

T1 sequence (Q5NUL3 1-377 isoform Q5NUL3-1): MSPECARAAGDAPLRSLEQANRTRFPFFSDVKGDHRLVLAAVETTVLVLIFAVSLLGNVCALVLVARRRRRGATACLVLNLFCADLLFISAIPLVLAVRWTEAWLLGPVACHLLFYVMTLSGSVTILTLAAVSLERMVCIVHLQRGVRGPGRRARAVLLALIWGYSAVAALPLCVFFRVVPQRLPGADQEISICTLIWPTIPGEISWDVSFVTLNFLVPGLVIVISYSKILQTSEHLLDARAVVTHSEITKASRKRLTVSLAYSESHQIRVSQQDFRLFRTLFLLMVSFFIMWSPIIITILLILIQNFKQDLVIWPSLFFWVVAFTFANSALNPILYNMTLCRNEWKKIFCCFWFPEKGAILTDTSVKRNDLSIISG
T1 sequence (P32121 whole entry partner): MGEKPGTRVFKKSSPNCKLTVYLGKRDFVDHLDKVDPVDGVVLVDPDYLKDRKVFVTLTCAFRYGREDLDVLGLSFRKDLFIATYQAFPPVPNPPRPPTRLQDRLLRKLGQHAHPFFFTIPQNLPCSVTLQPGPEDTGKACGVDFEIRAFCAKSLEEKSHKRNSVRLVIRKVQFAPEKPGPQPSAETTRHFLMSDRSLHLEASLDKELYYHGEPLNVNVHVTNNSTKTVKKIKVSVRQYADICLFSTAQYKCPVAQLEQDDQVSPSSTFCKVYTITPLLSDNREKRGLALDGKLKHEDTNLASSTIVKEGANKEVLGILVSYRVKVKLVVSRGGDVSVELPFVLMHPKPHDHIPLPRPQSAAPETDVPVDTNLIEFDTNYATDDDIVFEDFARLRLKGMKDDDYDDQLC

Structure (SMILES): COc1ccc(-c2nsc(C(F)(F)F)c2COc2c(F)cc(CCCO)cc2F)cn1 [Cpd 81, 3-(3,5-difluoro-4-[[3-(6-methoxypyridin-3-yl)-5-(trifluoromethyl)-1,2-thiazol-4-yl]methoxy]phenyl)propan-1-ol]
- EC50 [1]: 94 nM
- EC50 (Human GPR120 short form): 51 nM

Structure (SMILES): O=C(O)CCc1cc(F)c(OCc2c(C3=CCCC3)csc2C(F)(F)F)c(F)c1 [Cpd 31, 3-(4-((4-(cyclopent-1-en-1-yl)-2-(trifluoromethyl)thiophen-3-yl)methoxy)-3,5-difluorophenyl)propanoic acid]
- EC50 [1]: 503 nM
- EC50 (Human GPR120 short form): 46 nM

Structure (SMILES): CCc1ccc(-c2cc(C)sc2COc2ccc(CCC(=O)O)c(C)c2C)cc1 [Cpd 13, 3-(4-((3-(4-ethylphenyl)-5-methylthiophen-2-yl)methoxy)-2,3-dimethylphenyl)propanoic acid]
- EC50 [1]: 498 nM
- EC50 (Human GPR120 short form): 163 nM

Structure (SMILES): Cc1c(CCC(=O)O)ccc(OCc2c(Cl)nsc2-c2ccc(Cl)cc2)c1C [Cpd 88, 3-(4-[[3-chloro-5-(4-chlorophenyl)-1,2-thiazol-4-yl]methoxy]-2,3-dimethylphenyl)propanoic acid]
- EC50 [1]: 81 nM
- EC50 (Human GPR120 short form): 67 nM

Structure (SMILES): Cc1c(CCC(=O)O)ccc(OCc2csnc2-c2ccc(Cl)cc2)c1C [Cpd 166, 3-(4-((3-(4-chlorophenyl)isothiazol-4-yl)methoxy)-2,3-dimethylphenyl)propanoic acid]
- EC50 [1]: 1340 nM
- EC50 (Human GPR120 short form): 217 nM

Structure (SMILES): CCc1ccc(-c2nsc(C(F)(F)F)c2COc2c(F)cc(CCC(=O)O)c(F)c2F)cc1 [Cpd 117, 3-(4-((3-(4-ethylphenyl)-5-(trifluoromethyl)isothiazol-4-yl)methoxy)-2,3,5-trifluorophenyl)propanoic acid]
- EC50 [1]: 254 nM
- EC50 (Human GPR120 short form): 104 nM

Structure (SMILES): CCc1ccc(-c2cscc2COc2c(F)cc(CCC(=O)O)cc2F)cc1 [Cpd 53, 3-(4-((4-(4-ethylphenyl)thiophen-3-yl)methoxy)-3,5-difluorophenyl)propanoic acid]
- EC50 [1]: 668 nM
- EC50 (Human GPR120 short form): 191 nM

Structure (SMILES): Cc1cc(CCC(=O)O)ccc1OCc1c(-c2ccc(Cl)cc2)nsc1C(F)(F)F [Cpd 235, 3-(4-[[3-(4-chlorophenyl)-5-(trifluoromethyl)-1,2-thiazol-4-yl]methoxy]-3-methylphenyl)propanoic acid]
- EC50 [1]: 302 nM

Structure (SMILES): CCc1ccc(-c2nsc(C(F)(F)F)c2COc2c(C)cc(CCC(=O)O)cc2C)cc1 [Cpd 239, 3-(4-((3-(4-ethylphenyl)-5-(trifluoromethyl)isothiazol-4-yl)methoxy)-3,5-dimethylphenyl)propanoic acid]
- EC50 [1]: 203 nM

Structure (SMILES): OCCCc1ccc(OCc2sc(Cl)cc2-c2ccc(Cl)cc2)c(F)c1F [Cpd 29, 3-(4-[[5-chloro-3-(4-chlorophenyl)thiophen-2-yl]methoxy]-2,3-difluorophenyl)propan-1-ol]
- EC50 [1]: 243 nM

Structure (SMILES): COc1ccc(-c2nsc(C(F)(F)F)c2COc2c(F)cc(CCCO)cc2F)cc1 [Cpd 234, 3-(3,5-difluoro-4-[[3-(4-methoxyphenyl)-5-(trifluoromethyl)-1,2-thiazol-4-yl]methoxy]phenyl)propan-1-ol]
- EC50 [1]: 145 nM

Structure (SMILES): Cc1ccc(-c2snc(Cl)c2COc2c(F)cc(CCC(=O)O)cc2F)c(F)c1 [Cpd 77, 3-(4-[[3-chloro-5-(2-fluoro-4-methylphenyl)-1,2-thiazol-4-yl]methoxy]-3,5-difluorophenyl)propanoic acid]
- EC50 [1]: 191 nM

Structure (SMILES): O=C(O)CCc1ccc(OCc2sc(Cl)cc2-c2ccc(Cl)cc2)c(F)c1F [Cpd 28, 3-(4-[[5-chloro-3-(4-chlorophenyl)thiophen-2-yl]methoxy]-2,3-difluorophenyl)propanoic acid]
- EC50 [1]: 186 nM

Structure (SMILES): Cc1c(CCC(=O)O)ccc(OCc2c(Cl)nsc2-c2ccc(C(F)(F)F)cc2)c1C [Cpd 112, 3-[4-([3-chloro-5-[4-(trifluoromethyl)phenyl]-1,2-thiazol-4-yl]methoxy)-2,3-dimethylphenyl]propanoic acid]
- EC50 (Human GPR120 short form): 99 nM

Structure (SMILES): Cc1ccc(-c2snc(-c3ccccc3)c2COc2c(F)cc(CCC(=O)O)cc2F)c(F)c1 [Cpd 211, 3-(3,5-difluoro-4-[[5-(2-fluoro-4-methylphenyl)-3-phenyl-1,2-thiazol-4-yl]methoxy]phenyl)propanoic acid]
- EC50 (Human GPR120 short form): 597 nM
